Results published in patent US20110129935A1, “PROTEIN STABILITY ASSAY USING A FLUORESCENT REPORTER OF PROTEIN FOLDING” (James Cook University, priority 2008, published 2011).

Experiments:
CAT-GFP = CAT-GFP (Escherichia coli, UniProt P62577); type: binding; details: 10 mM chloramphenicol, 9.2 mM ampicillin or 6.4% ethanol
Procedure: (§1) Protein samples (6 or 10 μl) were incubated along a temperature gradient in a thermocycler for 5 minutes or 30 minutes for the determination of Tagg, or at a constant temperature and increasing times to determine kagg. After heat treatment and centrifugation as described above, 3 or 5 μl of supernatant were transferred to a black 96-well plate (Nunclon, Nunc, Rochester, N.Y., USA), diluted with 47 or 50 μl respectively of Buffer A or Buffer B and the fluorescent Ffold was determined with a fluorescence plate reader (Victor V Wallace, Perkin-Elmer, Melbourne VIC, Australia). The excitation and emission filters were set at 355 nm and 535 nm respectively, with 40 nm band-width. Data were normalized against the fluorescence of an untreated sample.
(§2) To determine the effect of ligands, CAT-GFP reaction premix contained 9.2 μl of CAT-GFP (71 μM in Buffer A), 51.6 μl of Buffer A and 4.2 μl of either 50 mg/ml chloramphenicol in ethanol or 50 mg/ml ampicillin in water. GK-GFP reaction premix contained 9.3 μl of GK-GFP (70 μM), 49.20 of Buffer A and 6.5 μl of either Buffer A+10 mM glycerol or Buffer A+10 mM glucose. Reaction volume was 10 μl and 5 μl of the soluble fraction was analysed by plate reader after centrifugation.
The S method was then further developed to evaluate the effect of ligand binding and additives in a rapid throughput format for the three test proteins using replicates of single timepoints (FIG. 6a-6c). […] Indeed, the temperature used to test for chloramphenicol binding had to be kept quite low and for a short time as GFP would have been destabilized in more stringent conditions. […] This non-specific stabilization could also be attributed to the low stringency of the conditions.

Tus-GFP = Tus-GFP (Escherichia coli, UniProt P16525, Q80R); test: Isothermal aggregation of Tus-GFP with additives (kagg, S method); design: species or system E. coli; details: 46° C., 25% glycerol in 0.5× Buffer B
Procedure: as §1, with “sample. […]” for “sample.”
The kagg (s^−1) measured the loss of fluorescence of the soluble fraction of proteins over time. The kagg values were determined by the exponential fit of normalized Ffold as follows:
To evaluate the kinetic parameters of the system, a 96-well plate format was designed that enabled measurement of the residual Ffold of Tus-GFP over time. Isothermal aggregation reactions were monitored at 46° C. to quantify the effect of stabilizing or destabilizing salts and additives on the kagg of Tus-GFP (FIG. 3). […]

GK-GFP = GK-GFP (Escherichia coli, UniProt P0A6F3); test: Rapid throughput S method, Ffold of GK-GFP with ligands or other proteins; type: binding, E. coli; details: 1 mM glycerol in presence of BSA 15 μM
Chain of GK-GFP (P0A6F3 other isoform, or with tags, fused parts or gaps): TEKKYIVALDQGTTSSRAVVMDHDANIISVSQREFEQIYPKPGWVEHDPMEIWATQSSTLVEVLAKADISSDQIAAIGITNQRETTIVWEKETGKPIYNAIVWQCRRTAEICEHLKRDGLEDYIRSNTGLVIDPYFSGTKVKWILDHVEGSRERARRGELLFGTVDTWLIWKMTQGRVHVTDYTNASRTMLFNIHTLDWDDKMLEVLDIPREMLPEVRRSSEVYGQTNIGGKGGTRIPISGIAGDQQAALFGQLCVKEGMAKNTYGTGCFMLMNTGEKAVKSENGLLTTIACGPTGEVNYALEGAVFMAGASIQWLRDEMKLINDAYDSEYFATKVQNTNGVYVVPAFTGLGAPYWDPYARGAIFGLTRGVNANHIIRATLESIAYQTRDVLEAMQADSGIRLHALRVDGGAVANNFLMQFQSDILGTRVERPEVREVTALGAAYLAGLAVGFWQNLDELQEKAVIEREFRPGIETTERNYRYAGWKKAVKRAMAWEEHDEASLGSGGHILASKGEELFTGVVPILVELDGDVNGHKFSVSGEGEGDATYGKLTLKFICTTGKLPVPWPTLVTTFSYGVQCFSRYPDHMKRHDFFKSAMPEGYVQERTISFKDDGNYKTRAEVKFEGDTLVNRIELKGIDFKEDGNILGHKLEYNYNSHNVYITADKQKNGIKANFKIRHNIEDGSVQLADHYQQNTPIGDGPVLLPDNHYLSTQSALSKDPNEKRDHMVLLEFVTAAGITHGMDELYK
Procedure: as §1
as §2, with “centrifugation. […]” for “centrifugation.”

| Compound | stabilization of CAT-GFP (Ffold) (CAT-GFP) | stabilization effect on Tus-GFP (kagg) (Tus-GFP) | stabilization of GK-GFP (Ffold) (GK-GFP) |
| --- | --- | --- | --- |
| CCO [ethanol] | almost the same stabilizing effect | – | – |
| CC1(C)S[C@@H]2[C@H](NC(=O)[C@H](N)c3ccccc3)C(=O)N2[C@H]1C(=O)O [ampicillin] | moderate stabilization | – | – |
| OCC(O)CO [glycerol] | – | largest stabilization effect | almost completely stabilized |
| O=C(N[C@H](CO)[C@H](O)c1ccc([N+](=O)[O-])cc1)C(Cl)Cl [chloramphenicol] | stabilizing | – | – |
